The values that follow are results of earlier work, collected in US20060211766A1, “Gelled immunomodulating topical compositions and a method of treating warts and other human papilloma virus skin infections” (priority 2004, published 2006).

In this data set the test system is rodents. As to conditions: in rodents.

Consider `CC(C)=O` [Acetone], for which the LD/50 is 10.7 mg per kilogram.
